Results as given in US7825231B2 (priority 2005, dated 2010).
Entries after “also recorded” stand apart in the source; their conditions may differ.

Tests used:
Type in all cases: in vivo, rat
male Sprague-Dawley rats [1] = assay: CFA model of inflammatory pain: mechanical allodynia (von Frey hairs); settings: three days after CFA injury
Description: (§1) Mechanical allodynia induced by SNL was determined by assessing the response of paw withdrawal to von Frey hairs of graded tensile strength as described previously with a tactile stimulus producing a 50% likelihood of withdrawal determined using the up-down method(53, 71, 72). Thermal hyperalgesia was determined using a Hargreaves apparatus recording the time to withdrawal from a radiant thermal stimulus positioned directly under the hind paw(73). Parametric statistics, using the general linear model for repeated measures were used to identify significant effects of treatment condition on the behavioral measure of neuropathic pain. The results were examined for a main effect of treatment group. All statistical analyses were performed using the software package, SPSS 13.0 for Windows (SPSS Inc., Chicago, Ill.).
(§2) Inflammatory injury was induced by injection of 150 μL CFA in the left-hind paw of male Sprague-Dawley rats.
Mechanical allodynia was tested using von Frey hair stimulation as described in Example 2. […] The antiallodynic effect of vEM2 was reversed by intrathecal (FIG. 5B) or intraperitoneal (FIG. 5C) administration of Nal-M.

male Sprague-Dawley rats [2] = assay: CFA model of inflammatory pain: thermal hyperalgesia (Hargreaves apparatus); settings: three days after CFA injury
Description: as §1, §2
Thermal hyperalgesia was tested using a Hargreaves apparatus as in Example 2.

male Sprague-Dawley rats [3] = assay: CFA model of inflammatory pain: weight bearing (incapacitance analgesia meter); settings: three days after CFA injury
Description: as §2
Weight-bearing ability in the CFA model was measured using an incapacitance analgesia meter. […] The effect of vEM2 was reversed by intrathecal (FIG. 7B) or intraperitoneal (FIG. 7C) administration of Nal-M.

rats with SNL [4] = assay: Spinal nerve ligation model of neuropathic pain: thermal hyperalgesia (Hargreaves apparatus); settings: intrathecal
Text: (§3) The spinal nerve ligation model was utilized to produce mechanical allodynia and thermal hyperalgesia, hallmarks of neuropathic pain(41).
(§4) Male Sprague-Dawley rats weighing 225 to 250 g underwent selective L5 SNL with the approval of the University Committee on Use and Care of Animals(53). Under isoflurane anesthesia, an incision was made in the atlanto-occipital membrane, a polyethylene (PE-10) catheter, filled with 0.9% saline, was advanced 8.5 cm caudally to position its tip at the level of the lumbar enlargement. The rostral tip of the catheter was passed subcutaneously, externalized on top of the skull, and sealed with a stainless-steel plug. One week after implantation of the intrathecal catheter, L5 spinal nerve ligation (SNL) was performed. […]
(§5) Mechanical allodynia induced by SNL was determined by assessing the response of paw withdrawal to von Frey hairs of graded tensile strength as described previously with a tactile stimulus producing a 50% likelihood of withdrawal determined using the up-down method(53, 71, 72). Thermal hyperalgesia was determined using a Hargreaves apparatus recording the time to withdrawal from a radiant thermal stimulus positioned directly under the hind paw(73). […]

rats with SNL [5] = assay: Spinal nerve ligation model of neuropathic pain: mechanical allodynia (von Frey hairs); settings: intrathecal
Text: as §3, §4, §5

[6] = 10 days after vEM2 in rats with SNL

Row | Compound | effect on the antiallodynic effect of vEM2 (mechanical threshold) (male Sprague-Dawley rats [1]; intraperitoneal) | effect on the antiallodynic effect of vEM2 (mechanical threshold) (male Sprague-Dawley rats [1]; intrathecal) | effect on the anti-hyperalgesic effect of vEM2 (thermal latency) (male Sprague-Dawley rats [2]; intraperitoneal) | effect on the anti-hyperalgesic effect of vEM2 (thermal latency) (male Sprague-Dawley rats [2]; intrathecal) | effect on the effect of vEM2 (weight bearing differential) (male Sprague-Dawley rats [3]; intraperitoneal) | effect on the effect of vEM2 (weight bearing differential) (male Sprague-Dawley rats [3]; intrathecal) | effect on the antihyperalgesic effect produced by vEM2 (rats with SNL [4]; [6]) | effect on thermal latency, given alone (rats with SNL [4]; normal animals, data not shown) | effect on the antiallodynic effect produced by vEM2 (rats with SNL [5]; [6]) | effect on mechanical threshold, given alone (rats with SNL [5]; normal animals, data not shown)
1 | C=CC[N+]1(C)CC[C@]23c4c5ccc(O)c4O[C@H]2C(=O)CC[C@@]3(O)[C@H]1C5 (stereo partly shown) [Nal-M, naloxone-methiodide] | reversed | reversed | reversed | not significantly affected; also recorded: did not significantly counteract | reversed | reversed |  |  |  | 
2 | CTOP |  |  |  |  |  |  | reversed | did not affect | reversed | did not affect
